Measured values published in patent US8900845B2, “Methods and uses of KSR kinase, and mutations thereof” (Washington University, priority 2011, dated 2014).

Key:
FLAG-KSR and BRAF dimer = FLAG-KSR and BRAF dimer (Homo sapiens, UniProt P15056); assay: Co-immunoprecipitation of KSR/BRAF dimers in drug-treated cells; assay type: cell-based; settings: cells overexpressing FLAG-KSR and BRAF, drug for 1 hour, KSR immunoprecipitates immunoblotted for BRAF
Method: (§1) Dimerization experiments: For most experiments, constructs for wild-type and mutated BRAF, CRAF and KSR1 were appended with epitope tags (FLAG, 6× His, Myc, GFP) and were expressed by transient transfection into 293T cells. Cells were lysed in a buffer containing 1% NP40 and 0.1% deoxycholate. Cells were pretreated with drugs for 1 hour prior to lysis. Immunoprecipitates were analyzed by gel electrophoresis and immunoblotted after transfer to nitrocellulose membranes using standard methods.
(§2) Cells grown in serum, expressing combinations of KSR, BRAF and CRAF, were treated with both drugs. Co-immunoprecipitations were then performed to examine dimer formation.
(§3) KSR immunoprecipitates were prepared from cells overexpressing FLAG-KSR and BRAF after treatment with the indicated drug for 1 hour and immunoblotted using antibodies to BRAF.

KSR and CRAF dimer = target: T1, KSR and CRAF dimer (Homo sapiens, UniProt P04049); assay: Co-immunoprecipitation of KSR/CRAF dimers in drug-treated cells; assay type: cell-based; settings: cells overexpressing FLAG-KSR and myc-CRAF, drug for 1 hour, FLAG-KSR immunoprecipitates immunoblotted for CRAF (myc)
T1 construct: expressed in transfected cells; host or cells: 293T cells
T1 sequence (P04049 whole entry): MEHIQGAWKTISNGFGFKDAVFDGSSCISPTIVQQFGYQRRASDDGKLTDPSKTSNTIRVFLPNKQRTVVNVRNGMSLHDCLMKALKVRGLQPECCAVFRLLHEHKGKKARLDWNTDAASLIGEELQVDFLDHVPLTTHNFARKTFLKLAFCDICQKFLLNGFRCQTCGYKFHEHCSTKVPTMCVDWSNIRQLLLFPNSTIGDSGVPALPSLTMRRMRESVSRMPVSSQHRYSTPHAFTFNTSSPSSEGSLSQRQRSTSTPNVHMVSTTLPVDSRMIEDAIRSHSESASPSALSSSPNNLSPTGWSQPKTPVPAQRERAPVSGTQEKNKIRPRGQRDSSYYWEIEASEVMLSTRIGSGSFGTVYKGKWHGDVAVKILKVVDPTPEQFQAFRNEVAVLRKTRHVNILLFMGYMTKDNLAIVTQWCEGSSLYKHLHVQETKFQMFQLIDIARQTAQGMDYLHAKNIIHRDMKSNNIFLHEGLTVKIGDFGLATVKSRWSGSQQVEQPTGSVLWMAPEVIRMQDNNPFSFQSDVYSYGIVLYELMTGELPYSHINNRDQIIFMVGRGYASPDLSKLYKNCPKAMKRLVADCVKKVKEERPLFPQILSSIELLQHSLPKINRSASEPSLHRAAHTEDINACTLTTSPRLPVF
T1 sequence (Q61097 whole entry partner): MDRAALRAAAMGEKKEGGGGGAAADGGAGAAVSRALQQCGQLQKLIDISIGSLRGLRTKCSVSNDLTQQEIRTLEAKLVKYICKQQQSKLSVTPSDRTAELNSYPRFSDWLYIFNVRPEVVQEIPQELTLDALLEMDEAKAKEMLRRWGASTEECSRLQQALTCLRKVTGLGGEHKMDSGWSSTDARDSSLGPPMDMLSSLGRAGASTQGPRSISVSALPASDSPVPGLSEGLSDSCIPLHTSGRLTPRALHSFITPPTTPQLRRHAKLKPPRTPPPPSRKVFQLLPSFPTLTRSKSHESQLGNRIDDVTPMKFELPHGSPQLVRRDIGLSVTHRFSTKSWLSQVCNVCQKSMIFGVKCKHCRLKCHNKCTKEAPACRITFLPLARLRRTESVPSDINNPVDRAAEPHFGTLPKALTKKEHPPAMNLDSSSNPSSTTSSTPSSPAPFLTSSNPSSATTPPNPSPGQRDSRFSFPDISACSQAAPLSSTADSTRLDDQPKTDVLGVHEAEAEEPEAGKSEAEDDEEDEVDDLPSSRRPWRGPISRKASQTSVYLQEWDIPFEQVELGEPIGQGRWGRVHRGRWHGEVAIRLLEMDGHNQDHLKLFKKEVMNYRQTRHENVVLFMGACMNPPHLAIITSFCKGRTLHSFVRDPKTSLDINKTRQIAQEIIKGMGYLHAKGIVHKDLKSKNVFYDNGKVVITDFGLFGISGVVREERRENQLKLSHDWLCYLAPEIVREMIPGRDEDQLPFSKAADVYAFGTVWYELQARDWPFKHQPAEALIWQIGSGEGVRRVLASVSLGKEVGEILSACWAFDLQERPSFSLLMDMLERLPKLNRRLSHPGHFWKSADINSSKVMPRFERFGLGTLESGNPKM
Method: as §1, §2, §3

[1] = test system: MEK phosphorylation (pMEK); assay: MEK activation (pMEK immunoblot) in cells co-expressing KSR and CRAF; assay type: cell-based; settings: saturating dose, 2 hours
Method: Kinase reactions: Cells transfected with various constructs were treated or not with PLX4720 for 1-2 hours. Cells were lysed with 1% NP40 and immunoprecipitates prepared.
In these experiments, we tested the function of the CRAF/KSR dimer by co-expressing both proteins and using PLX4720 (FIG. 1F) or GDC0879 (data not shown) to induce dimer formation between the two proteins. […] Cells expressing the indicated constructs were treated with a saturating dose of PLX for 2 hours before cell lysates were prepared and analyzed for pMEK by immunoblotting.

BRAF/CRAF dimers = BRAF/CRAF dimers (Homo sapiens, UniProt P04049+P15056); settings: cells overexpressing myc-CRAF and BRAF, drug for 1 hour, CRAF immunoprecipitates immunoblotted for BRAF
Chain of BRAF/CRAF dimers (P15056 whole entry): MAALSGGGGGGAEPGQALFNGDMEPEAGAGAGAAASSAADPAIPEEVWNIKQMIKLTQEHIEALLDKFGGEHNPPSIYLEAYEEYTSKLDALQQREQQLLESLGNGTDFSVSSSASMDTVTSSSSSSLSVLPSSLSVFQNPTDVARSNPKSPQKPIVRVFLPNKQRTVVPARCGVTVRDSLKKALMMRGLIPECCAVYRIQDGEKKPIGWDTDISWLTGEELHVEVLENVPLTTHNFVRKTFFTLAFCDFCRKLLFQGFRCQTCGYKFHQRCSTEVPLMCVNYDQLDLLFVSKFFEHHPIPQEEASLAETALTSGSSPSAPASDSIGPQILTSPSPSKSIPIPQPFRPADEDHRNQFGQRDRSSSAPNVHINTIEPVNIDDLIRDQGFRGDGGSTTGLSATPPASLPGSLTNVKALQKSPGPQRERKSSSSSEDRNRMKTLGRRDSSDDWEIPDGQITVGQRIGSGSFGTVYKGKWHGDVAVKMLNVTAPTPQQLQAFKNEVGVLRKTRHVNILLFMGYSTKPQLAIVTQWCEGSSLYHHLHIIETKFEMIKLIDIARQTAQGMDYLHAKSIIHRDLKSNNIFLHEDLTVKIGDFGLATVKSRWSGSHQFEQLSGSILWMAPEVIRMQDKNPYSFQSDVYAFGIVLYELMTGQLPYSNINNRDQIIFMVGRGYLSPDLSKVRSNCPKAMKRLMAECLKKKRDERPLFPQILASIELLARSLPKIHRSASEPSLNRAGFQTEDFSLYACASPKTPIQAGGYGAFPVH
Chain of BRAF/CRAF dimers (P04049 whole entry): as the sequence (P04049 whole entry) above
Method: as §1, §2, §3

[2] = target: KSR kinase activity towards MEK (Homo sapiens, UniProt P04049); settings: cells co-expressing KSR and CRAF treated with 10 μM for one hour; immunoprecipitates pre-treated with 50 μM PLX
Chain of KSR kinase activity towards MEK (Q61097 whole entry partner): as the sequence (Q61097 whole entry partner) above
Chain of KSR kinase activity towards MEK (P04049 whole entry): as the sequence (P04049 whole entry) above
Method: Kinase reactions: Cells transfected with various constructs were treated or not with PLX4720 for 1-2 hours. Cells were lysed with 1% NP40 and immunoprecipitates prepared. In vitro kinase reactions were performed in a standard buffer with 10 mM MgCl2, with 1 ug of kinase dead MEK, and 100 uM cold ATP. In some experiments, to inhibit contaminating Raf activity, 50 uM PLX4720 was preincubated with the reactions.
To test whether KSR might be activated by CRAF, we co-expressed KSR and CRAF and induced dimerization of CRAF with KSR by adding a low dose (10 μM) of PLX4720. KSR immunoprecipitates were then prepared and tested for kinase activity in vitro. To inhibit any contaminating RAF kinase activity co-precipitating with KSR, we preincubated the immunoprecipitates with an inhibitory dose of PLX4720 (50 μM). […] Cells were co-transfected with WT or ATP binding deficient KSR and CRAF and immunoprecipitates prepared after cells were treated with an activating dose of PLX (10 μM) for one hour. Immunoprecipitates were prepared, pre-treated with 50 μM PLX to inhibit co-precipitating RAF activity and then tested for kinase activity using purified MEK.

Chain of FLAG-KSR and BRAF dimer (P15056 whole entry): as the sequence (P15056 whole entry) above
Chain of FLAG-KSR and BRAF dimer (Q61097 whole entry partner): as the sequence (Q61097 whole entry partner) above

## CCCS(=O)(=O)Nc1ccc(F)c(C(=O)c2c[nH]c3ncc(Cl)cc23)c1F [PLX4720]
FLAG-KSR and BRAF dimer
  dimer formation between KSR and BRAF: but not PLX4720 can induce dimer formation between FLAG-KSR and BRAF
KSR and CRAF dimer
  dimer formation between KSR and CRAF: induce dimer formation between KSR and CRAF
[1]
  MEK activation (pMEK): MEK was still activated
BRAF/CRAF dimers
  dimer formation between BRAF and CRAF: but not PLX4720 induces dimers between BRAF and CRAF
[2]
  kinase activity towards MEK in KSR immunoprecipitates: induced kinase activity towards MEK in the KSR immunoprecipitates
